Data: patent US5449612A, “Process for identifying candida by means of chromogenic substances” (Serbio, priority 1990, dated 1995)
Residues, ends and D or L forms follow the SMILES beside them. *: point of attachment. pNA = O=[N+]([O-])c1ccc(N*)cc1

How the values were obtained:
β-D-glucosidase = conditions: Casal et al. 1983; Polachek et al. 1987; cited from earlier work
Candida albicans = test: Tests on substrates against Candida albicans, colour reading on buffered gelose; format: cell-based; conditions: Table I; medium pH 6.0, YNB, glucose, agar, gentamycin; coloration or fluorescence
Candida tropicalis = test: Tests on substrates against Candida tropicalis, colour reading on buffered gelose; format: cell-based
T. glabrata [1] = test: Tests on substrates against T. glabrata, colour reading on buffered gelose; format: cell-based, Torulopsis glabrata; conditions: pH 6; also: key: -: none; +: weak; ++: moderate; +++: intense; ++++: very intense
Candida krusei = test: Tests on substrates against Candida krusei, colour reading on buffered gelose; format: cell-based; as to Reading at 24 h: key: -: none; +: weak; ++: moderate; +++: intense; ++++: very intense
C. albicans = test: Diagnosis from isolated colonies on gelose 2/5; format: cell-based, Candida albicans; also: key: -: none; +: weak; ++: moderate; +++: intense; ++++: very intense
C. tropicalis = test: Diagnosis from isolated colonies on gelose 2/5; format: cell-based, Candida tropicalis
T. glabrata [2] = test: Diagnosis from isolated colonies on gelose 2/5; format: cell-based, Torulopsis glabrata; also: key: -: none; +: weak; ++: moderate; +++: intense; ++++: very intense
C. krusei = test: Diagnosis from isolated colonies on gelose 2/5; format: cell-based, Candida krusei
Protocol: According to the afore-mentioned best mode of carrying out the invention, a culture medium containing the following ingredients is prepared; it is called gelose 2 below and is buffered to pH 6.0.
According to the afore-mentioned best mode of carrying out the invention, a culture medium containing the following ingredients is prepared; it is called gelose 5 below and is buffered to pH 6.0.
Several isolated strains of C. albicans, C. tropicalis, C. krusei, C. guillermondii, C. pseudotropicalis, C. parapsilosis, C. zeylanoides, T. glabrata and Trichosporon cutaneum were inoculated and incubated on the media of Examples 1 to 5. […] Part of the results obtained has been collated in Table VI below, where the TTC column relates to results of tests undertaken separately on a standard gelose medium containing TTC.
Several isolated strains of C. albicans, C. tropicalis, C. krusei, C. guillermondii and T. glabrata were inoculated and incubated on the media of Example 2 [containing either the substrate N-Ac-β-D-galactosaminide-PNP of the prior art, or the substrates H-L-PropNA.AcOH (specific for C. albicans), EM-L-Phg-L-ArgpNA.AcOH (specific for T. glabrata) and H-Gly-L-Pro-L-Arg-pNA.2AcOH (specific for C. krusei)]and of Example 5 (containing the substrate H-L-Pro-pNA.AcOH).

[3] = tested on: isolated strains of Candida albicans, Candida guillermondii, Candida intermedia, Candida parapsilosis, Candida pseudotropicalis, Candida stellatoidea, Candida …; conditions: YEAST-IDENT, liquid medium, 4 h at 37° C.; cited from earlier work

OC[C@H]1O[C@@H](Oc2ccc3cc(Br)ccc3c2)[C@H](O)[C@@H](O)[C@@H]1O [(6-bromo-β-naphthyl)-β-D-glucopyranoside]
reaction with isolated strains (β-D-glucosidase): positive reaction

N=C(N)NCCC[C@H](NC(=O)[C@@H]1CCCN1C(=O)CN)C(=O)Nc1ccc([N+](=O)[O-])cc1 [H-Gly-L-Pro-L-Arg-pNA.2AcOH] (H-Gly-Pro-Arg-pNA)
Reading at 24 h (Candida albicans): ++++
Specificity: interference with C. tropicalis (Candida tropicalis; Table I): (b)
Reading at 24 h (Candida tropicalis; Table II, medium pH 6.0, YNB, glucose, agar, gentamycin): ++++
C. TROPICALIS reading at 24 h (Candida tropicalis; Table III, medium pH 6.0): ++++
Specificity: interference with C. tropicalis (Candida tropicalis; Table IV): (a)
T. GLABRATA reading at 24 h (T. glabrata [1]): -
Specificity: interference with C. krusei (Candida krusei; Table I): (c)
Reading at 24 h (Candida krusei; Table IV, medium pH 6.0): ++++
Reading at t = 24 h (C. albicans): -
Reading at t = 24 h (C. tropicalis): ++
Reading at t = 24 h (T. glabrata [2]): -
Reading at t = 24 h (C. krusei): +++

O=C(Nc1ccc2ccccc2c1)[C@@H]1CCCN1 [H-L-Pro-NA]
reaction with isolated strains [3]: positive reaction
